# Data: patent US10059713B2 (Takeda Pharmaceutical Company Limited, priority 2014, dated 2018)
# Target: human GPR43 (Homo sapiens (Human), UniProt O15552)
# Assay: Ca-Flux functional assay: determination of agonist/positive allosteric modulator (PAM) activity
# Type: cell-based
# Conditions: CHO-K1 Gα16 cells stably expressing human GPR43; compound added with EC20 sodium acetate; intracellular Ca2+ by FLIPR; does not distinguish agonist from PAM
# Method: Ca-Flux Functional Assay: Determination of Agonist/Positive Allosteric Modulator (PAM) Activity
# GPR43 agonist/PAM activity was determined by measuring changes in intracellular calcium levels using a Ca^2+ sensitive fluorescent dye. The changes in fluorescent signal were monitored by FLIPR (manufactured by Molecular Devices). GPR43 mediated increases in intracellular Ca^2+ concentration were readily detected upon activation with sodium acetate. Prior to the assay (24 hours), CHO-K1 Gα16 cells stably expressing human GPR43 were-seeded in cell culture medium in black, clear-bottom 384-well plates (Corning Inc) and grown overnight at 37° C., 5% CO2. On the day of the assay, cell culture media was removed and cells were loaded with Calcium 5 Dye (Molecular Devices) diluted in HBSS containing 25 mM HEPES, 2.5 mM Probenecid, 0.1% BSA for 1 hour at 37° C., 5% CO2. 10 point half log concentration response curves of sodium acetate from 10 mM were conducted prior to the testing of compounds to calculate the sodium acetate concentration that produces 20% of the maximal response (EC20). Test compounds (at 10 point half log concentration response curves from 10 μM) were added in the presence of sodium acetate to achieve a final concentration that produces approximately 20% maximal response as calculated from the previous experiment. The changes in fluorescent signal were monitored by FLIPR upon addition of the compound/EC20 sodium acetate mix. The EC50 values were determined from ten point concentration response curves. Curves were generated using the average of two wells for each data point.
# The above assay detects both GPR43 receptor agonists and positive allosteric modulators of the GPR43 receptor, without distinguishing between the two. Activity in either regard is useful in the treatment of conditions associated with GPR43 receptor activity.
# Sequence of human GPR43 (O15552 whole entry): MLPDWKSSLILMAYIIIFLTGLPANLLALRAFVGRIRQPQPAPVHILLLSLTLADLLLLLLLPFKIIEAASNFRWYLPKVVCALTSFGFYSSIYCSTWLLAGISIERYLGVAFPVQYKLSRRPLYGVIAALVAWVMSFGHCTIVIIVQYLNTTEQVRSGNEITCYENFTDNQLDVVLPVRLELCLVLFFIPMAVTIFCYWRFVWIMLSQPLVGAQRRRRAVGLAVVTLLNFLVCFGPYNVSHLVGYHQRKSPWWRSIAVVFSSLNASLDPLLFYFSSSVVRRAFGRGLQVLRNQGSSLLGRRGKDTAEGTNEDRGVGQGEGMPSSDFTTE
row,EC50 [nM],SMILES
1,6,"Cc1nc(N2CCOC(C)C2)c2[nH]c(N)c(S(=O)(=O)c3c(F)cccc3F)c2n1 (stereo not shown) [Example 263, 7-(2,6-difluorobenzenesulfonyl)-2-methyl-4-(2-methylmorpholin-4-yl)-5H-pyrrolo[3,2-d]pyrimidin-6-amine]"
2,9,"Cc1nc(N2CCOC(C)(C)C2)c2[nH]c(N)c(S(=O)(=O)c3c(F)cccc3F)c2n1 [Example 287, 7-(2,6-difluorobenzenesulfonyl)-4-(2,2-dimethylmorpholin-4-yl)-2-methyl-5H-pyrrolo[3,2-d]pyrimidin-6-amine]"
3,4,"Cc1nc(N2CCOC(C)(C)C2)c2[nH]c(N)c(S(=O)(=O)c3ccc(Cl)cc3F)c2n1 [Example 279, 7-(4-chloro-2-fluorobenzenesulfonyl)-4-(2,2-dimethylmorpholin-4-yl)-2-methyl-5H-pyrrolo[3,2-d]pyrimidin-6-amine]"
4,25,"Cc1nc(N2C[C@@H](C)O[C@H](C)C2)c2[nH]c(N)c(S(=O)(=O)c3cccc(F)c3)c2n1 [Example 200, 4-[(2R,6R)-2,6-dimethylmorpholin-4-yl]-7-(3-fluorobenzenesulfonyl)-2-methyl-5H-pyrrolo[3,2-d]pyrimidin-6-amine]"
5,82,"Cc1nc(N2CCC(F)(F)CC2)c2[nH]c(N)c(S(=O)(=O)c3cccc(F)c3)c2n1 [Example 181, 4-(4,4-difluoropiperidin-1-yl)-7-(3-fluorobenzenesulfonyl)-2-methyl-5H-pyrrolo[3,2-d]pyrimidin-6-amine]"
6,117,"N#CC1CN(c2ncnc3c(S(=O)(=O)c4ccccc4)c(N)[nH]c23)CCO1 (stereo not shown) [Example 216, 4-[6-amino-7-(benzenesulfonyl)-5H-pyrrolo[3,2-d]pyrimidin-4-yl]morpholine-2-carbonitrile]"
7,27,"Cc1nc(N2CCC3(CC2)CC3)c2[nH]c(N)c(S(=O)(=O)c3ccccc3)c2n1 [Example 207, 4-{6-azaspiro[2.5]octan-6-yl}-7-(benzenesulfonyl)-2-methyl-5H-pyrrolo[3,2-d]pyrimidin-6-amine]"
8,133,"Cc1nc(OC2CCOC(C)(C)C2)c2[nH]c(N)c(S(=O)(=O)c3ccccc3)c2n1 (stereo not shown) [Example 253, 7-(benzenesulfonyl)-4-[(2,2-dimethyloxan-4-yl)oxy]-2-methyl-5H-pyrrolo[3,2-d]pyrimidin-6-amine]"
9,25,"CC(Oc1ncnc2c(S(=O)(=O)c3ccccc3)c(N)[nH]c12)c1ccccc1 (stereo not shown) [Example 164, 7-(benzenesulfonyl)-4-(1-phenylethoxy)-5H-pyrrolo[3,2-d]pyrimidin-6-amine]"
10,14,"Cc1cccc(-c2nc(C)nc3c(S(=O)(=O)c4ccccc4)c(N)[nH]c23)c1 [Example 148, 7-(benzenesulfonyl)-2-methyl-4-(3-methylphenyl)-5H-pyrrolo[3,2-d]pyrimidin-6-amine]"
11,23,"Nc1[nH]c2c(N3CCOC4(CC4)C3)ncnc2c1S(=O)(=O)c1ccccc1 [Example 151, 7-(benzenesulfonyl)-4-{4-oxa-7-azaspiro[2.5]octan-7-yl}-5H-pyrrolo[3,2-d]pyrimidin-6-amine]"
12,270,"Cc1nc(N(C)C(C)C)c2[nH]c(N)c(S(=O)(=O)c3cccc(F)c3)c2n1 [Example 193, 7-(3-fluorobenzenesulfonyl)-2,4-N-dimethyl-4-N-(propan-2-yl)-5H-pyrrolo[3,2-d]pyrimidine-4,6-diamine]"
13,256,"Nc1[nH]c2c(C3CCCCC3)nncc2c1S(=O)(=O)c1ccccc1 [Example 228, 3-(benzenesulfonyl)-7-cyclohexyl-1H-pyrrolo[2,3-d]pyridazin-2-amine]"
14,3,"Cc1nc(N2CCOC(C)(C(F)(F)F)C2)c2[nH]c(N)c(S(=O)(=O)c3ccccc3F)c2n1 (stereo not shown) [Example 303, 7-(2-fluorobenzenesulfonyl)-2-methyl-4-[2-methyl-2-(trifluoromethyl)morpholin-4-yl]-5H-pyrrolo[3,2-d]pyrimidin-6-amine]"
15,6,"Cc1nc(N2CCOC3(CCCC3)C2)c2[nH]c(N)c(S(=O)(=O)c3ccccc3F)c2n1 [Example 177, 7-(2-fluorobenzenesulfonyl)-2-methyl-4-{6-oxa-9-azaspiro[4.5]decan-9-yl}-5H-pyrrolo[3,2-d]pyrimidin-6-amine]"
16,6,"Cc1nc(N2C[C@@H](C)O[C@@H](C)C2)c2[nH]c(N)c(S(=O)(=O)c3ccccc3)c2n1 [Example 138, 7-(benzenesulfonyl)-4-[(2R,6S)-2,6-dimethylmorpholin-4-yl]-2-methyl-5H-pyrrolo[3,2-d]pyrimidin-6-amine]"

# Further lines, the molecule ahead of its results:
row,SMILES,EC50 [nM]
1,"COC1CCCN(c2ncnc3c(S(=O)(=O)c4ccccc4)c(N)[nH]c23)C1 (stereo not shown) [Example 105, 7-(benzenesulfonyl)-4-(3-methoxypiperidin-1-yl)-5H-pyrrolo[3,2-d]pyrimidin-6-amine]",207
2,CC1(C)CCN(c2ncnc3c(S(=O)(=O)c4ccccc4)c(N)[nH]c23)C1 [Example 47],358
3,"Cc1nc(OC2CCC2)c2[nH]c(N)c(S(=O)(=O)c3ccccc3)c2n1 [Example 252, 7-(benzenesulfonyl)-4-cyclobutoxy-2-methyl-5H-pyrrolo[3,2-d]pyrimidin-6-amine]",67
4,"Cc1nc(C2CCCCC2)c2[nH]c(N)c(S(=O)(=O)c3ccccc3)c2n1 [Example 40, 7-(benzenesulfonyl)-4-cyclohexyl-2-methyl-5H-pyrrolo[3,2-d]pyrimidin-6-amine]",55
5,"COC(=O)Nc1[nH]c2c(C3=CCCCC3)ncnc2c1S(=O)(=O)c1ccccc1 [Example 17, Methyl-N-[7-(benzenesulfonyl)-4-(cyclohex-1-en-1-yl)-5H-pyrrolo[3,2-d]pyrimidin-6-yl]carbamate]",5090
6,"CN(CC(F)F)c1ncnc2c(S(=O)(=O)c3ccccc3)c(N)[nH]c12 [Example 96, 7-(benzenesulfonyl)-4-N-(2,2-difluoroethyl)-4 N-methyl-5H-pyrrolo[3,2-d]pyrimidine-4,6-diamine]",162
7,"Nc1[nH]c2c(N3CCC(F)(F)CC3)ncnc2c1S(=O)(=O)c1ccccc1F [Example 74, 4-(4,4-difluoropiperidin-1-yl)-7-(2-fluorobenzenesulfonyl)-5H-pyrrolo[3,2-d]pyrimidin-6-amine]",9
8,"Nc1[nH]c2c(C3=CCCCC3)ncnc2c1S(=O)(=O)C1CCOCC1 [Example 61, 4-(cyclohex-1-en-1-yl)-7-(oxane-4-sulfonyl)-5H-pyrrolo[3,2-d]pyrimidin-6-amine]",3470
9,"COc1ccc(S(=O)(=O)c2c(N)[nH]c3c(N4CCC(F)(F)CC4)ncnc23)cc1 [Example 68, 4-(4,4-difluoropiperidin-1-yl)-7-(4-methoxybenzenesulfonyl)-5H-pyrrolo[3,2-d]pyrimidin-6-amine]",32
10,"Nc1[nH]c2c(N3CCOCC3)ncnc2c1S(=O)(=O)c1ccccc1 [Example 6, 7-(benzenesulfonyl)-4-(morpholin-4-yl)-5H-pyrrolo[3,2-d]pyrimidin-6-amine]",273
11,"Cc1cc(CN(C)c2ncnc3c(S(=O)(=O)c4ccccc4)c(N)[nH]c23)no1 [Example 99, 7-(benzenesulfonyl)-4-N-methyl-4-N-[(5-methyl-1,2-oxazol-3-yl)methyl]-5H-pyrrolo[3,2-d]pyrimidine-4,6-diamine]",4670
12,"C[C@@H]1CN(c2ncnc3c(S(=O)(=O)c4ccccc4)c(N)[nH]c23)C[C@H](C)O1 [Example 75, 7-(benzenesulfonyl)-4-[(2R,6S)-2,6-dimethylmorpholin-4-yl]-5H-pyrrolo[3,2-d]pyrimidin-6-amine]",14
